Test results from patent US20170143738A1, “SOLID FORMULATION AND METHOD FOR STABILIZING THE SAME” (EA Pharma Co., Ltd., priority 2014, published 2017).

Key:
[1] = Storage stability of Elobixibat alone or mixed 1:1 with an additive: total related substance(s) by HPLC; assay type: physicochemical; conditions: stored in an open state for 2 weeks, 60° C. and 75% relative humidity
Experimental: (§1) 1,1-dioxo-3,3-dibutyl-5-phenyl-7-methylthio-8-(N—{(R)-1′-phenyl-1′-[N′-(carboxymethyl)carbamoyl]methyl}carbamoylmethoxy)-2,3,4,5-tetrahydro-1,5-benzothiazepine (Elobixibat) and an additive shown in Table 1 were mixed in a weight ratio of 1:1. Thereby, the mixtures according to Reference Examples 2 to 10 were obtained. The mixture of each of Reference Examples 2 to 10, and only Elobixibat as Reference Example 1 was independently stored in an open state for 2 weeks under the conditions of 60° C. and 75% relative humidity. The material of Reference Example 1 and the mixtures according to Reference Examples 2 to 10 after storage were independently dispersed and dissolved in acetonitrile aqueous solution. The total amount of related substance(s) in the aforementioned aqueous solution was calculated as the sum of the areas in percentage for Elobixibat by the measurement in accordance with an HPLC method. In addition, the presence or absence of coloration of the mixtures of Reference Examples 1 to 7 after storage was visually observed. “%” shown in Table 1 indicates percent by weight.

[2] = Visual observation of coloration of Elobixibat and Elobixibat/additive mixtures after storage; assay type: physicochemical; conditions: 60° C. and 75% relative humidity, visually observed
Experimental: as §1

In the case of `CCCCC1(CCCC)CN(c2ccccc2)c2cc(SC)c(OCC(=O)N[C@@H](C(=O)NCC(=O)O)c3ccccc3)cc2S(=O)(=O)C1` [Reference Example 1, 1,1-dioxo-3,3-dibutyl-5-phenyl-7-methylthio-8-(N—{(R)-1′-phenyl-1′-[N′-(carboxymethyl)carbamoyl]methyl}carbamoylmethoxy)-2,3,4,5-tetrahydro-1,5-benzothiazepine], the “Increase of the amount of related substance(s) after storage (in words)” value ([1]; summary of Table 1) is reported as “a great increase of the related substance(s) was not observed”, the “Total amount of related substance(s) after storage” value ([1]; weight ratio 1:1 with additive, sum of HPLC areas in percentage for Elobixibat) is reported as 0.6% and the “Coloration: Before storage → after storage” value ([2]; colour before and after 2 weeks open storage) is reported as “White → white”. The Coloration after storage ([2]; stored in an open state for 2 weeks) was “Not observed”.
